Laboratory results published in US5070074A, “Hypoglycemic and growth-promoting polypeptides isolated from bacitracin” (Protor Co., priority 1990, dated 1991).

Tested on: insulinase
Assay: insulinase inhibitory activity (method of Duckworth et al.)
Format: biochemical
Conditions: peaks from CM-Sepharose fractionation of commercial bacitracin
Procedure: The desired fraction is believed to have a molecular weight of about 1400, approximately the same as bacitracin A or F. Their anti-insulinase and antibacterial activities can be assayed in conventional manner. For example, the insulinase inhibitory activity was measured according to the method of Duckworth, et al., Proc. Nat. Acad. Sci., 69, 3698-3702 (1972) and the anti-bacterial activity by the method of Patrick, et al., Antibiotics and Chemotherapy, 1, 133-137 (1951).
A 350 ml bed volume of CM-Sepharose in a packed column (2.8×56 cm) was equilibrated with 0.05M ammonium acetate, pH 4.5 One gram of commercial bacitracin dissolved in 50 ml of buffer was applied to the packed column. The material was eluted with […] of equilibrating buffer followed by 350 ml of 1M ammonium acetate pH 4.5 buffer. Five ml fractions were collected and absorbance measurements at 252, 280 and 290 nm were made. In addition, insulinase inhibitory activity measurements were made on each peak. […] The peaks were collected, lyophilized, weighed and dissolved in water at 5 mg/ml concentration for specific activity measurements. The material collected with the second buffer contained 5-10 % of the total weight of the applied material and 90 % of the total insulinase inhibitory capacity. The specific activity of this material was 10-12 times that of the starting commercial material.

| Substance | insulinase inhibitory activity | insulinase inhibitory activity (listed as bacitracin A) | insulinase inhibitory activity (listed as bacitracin F) |
| --- | --- | --- | --- |
| bacitracin A | negligible | substantially no |  |
| bacitracin F | negligible |  | substantially no |
